Measured values as given in ChEMBL document CHEMBL3739371, “Small molecules enhance functional O-mannosylation of Alpha-dystroglycan” (Bioorg Med Chem, 2015).
The source made the active and inactive calls. The calls are words filed in the database; no cut-off is given here.

Assays:
[1] = target: T1, Dystroglycan (Cricetulus griseus) (UniProt G3H8F4); assay: Increase of functional O-mannosylation of alpha-dystroglycan in Chinese hamster pro5 cells expressing LARGE after 48 hrs by alpha-screen assay; format: cell-based
T1 sequence (whole entry): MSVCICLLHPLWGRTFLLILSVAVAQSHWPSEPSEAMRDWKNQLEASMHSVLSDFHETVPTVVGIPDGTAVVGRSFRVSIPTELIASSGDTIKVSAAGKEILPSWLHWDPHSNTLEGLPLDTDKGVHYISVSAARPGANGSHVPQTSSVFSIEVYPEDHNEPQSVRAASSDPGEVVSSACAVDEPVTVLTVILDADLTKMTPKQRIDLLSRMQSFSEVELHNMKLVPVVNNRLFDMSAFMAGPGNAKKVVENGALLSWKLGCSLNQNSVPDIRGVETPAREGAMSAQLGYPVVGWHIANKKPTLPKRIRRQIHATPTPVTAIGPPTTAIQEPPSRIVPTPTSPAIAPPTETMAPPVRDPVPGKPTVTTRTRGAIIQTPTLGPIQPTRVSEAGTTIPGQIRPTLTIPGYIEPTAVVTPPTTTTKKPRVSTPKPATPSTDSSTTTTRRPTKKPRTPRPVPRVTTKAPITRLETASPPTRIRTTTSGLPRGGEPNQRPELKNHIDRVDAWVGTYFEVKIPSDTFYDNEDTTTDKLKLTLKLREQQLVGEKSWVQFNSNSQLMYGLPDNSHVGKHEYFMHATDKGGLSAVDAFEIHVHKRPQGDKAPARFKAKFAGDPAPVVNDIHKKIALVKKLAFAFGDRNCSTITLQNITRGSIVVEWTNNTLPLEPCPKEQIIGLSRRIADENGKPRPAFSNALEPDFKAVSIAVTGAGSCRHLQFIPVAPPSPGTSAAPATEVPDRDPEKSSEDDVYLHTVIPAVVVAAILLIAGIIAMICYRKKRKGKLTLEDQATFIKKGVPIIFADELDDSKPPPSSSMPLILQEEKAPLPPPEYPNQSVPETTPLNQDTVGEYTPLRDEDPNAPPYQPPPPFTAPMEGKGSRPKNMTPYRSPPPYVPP

[2] = target: T2, Dystroglycan 1 (Mus musculus) (UniProt Q62165); assay: Increase of functional O-mannosylation of alpha-dystroglycan in mouse C2C12 cells expressing LARGE after 48 hrs by alpha-screen assay; format: cell-based
T2 sequence (whole entry): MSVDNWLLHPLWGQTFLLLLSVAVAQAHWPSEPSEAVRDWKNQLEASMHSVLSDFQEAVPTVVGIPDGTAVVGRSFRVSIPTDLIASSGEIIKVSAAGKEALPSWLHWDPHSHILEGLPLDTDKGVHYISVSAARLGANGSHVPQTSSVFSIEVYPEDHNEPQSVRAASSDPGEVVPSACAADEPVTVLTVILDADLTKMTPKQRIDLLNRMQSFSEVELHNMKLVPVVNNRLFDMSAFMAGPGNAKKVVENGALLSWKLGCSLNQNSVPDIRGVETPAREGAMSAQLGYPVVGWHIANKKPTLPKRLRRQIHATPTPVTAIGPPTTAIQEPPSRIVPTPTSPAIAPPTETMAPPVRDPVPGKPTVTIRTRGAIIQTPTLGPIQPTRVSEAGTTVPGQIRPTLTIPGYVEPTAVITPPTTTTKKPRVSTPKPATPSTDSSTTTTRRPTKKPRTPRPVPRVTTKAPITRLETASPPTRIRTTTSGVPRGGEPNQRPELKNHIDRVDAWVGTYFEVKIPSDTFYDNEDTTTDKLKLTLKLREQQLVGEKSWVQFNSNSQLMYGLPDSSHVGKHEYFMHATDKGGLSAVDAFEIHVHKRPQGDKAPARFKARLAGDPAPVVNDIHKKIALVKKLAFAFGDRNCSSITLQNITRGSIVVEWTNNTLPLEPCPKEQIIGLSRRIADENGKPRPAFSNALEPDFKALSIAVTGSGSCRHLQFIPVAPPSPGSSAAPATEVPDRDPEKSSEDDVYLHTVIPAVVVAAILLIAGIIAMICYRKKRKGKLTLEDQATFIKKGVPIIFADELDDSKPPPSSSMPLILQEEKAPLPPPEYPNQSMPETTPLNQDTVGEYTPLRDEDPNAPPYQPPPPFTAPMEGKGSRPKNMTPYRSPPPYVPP

[3] = target: T3, Dystroglycan 1 (Homo sapiens) (UniProt Q14118); assay: Increase of functional O-mannosylation of alpha-dystroglycan in human myotubes expressing myogenin after 48 hrs by alpha-screen assay
T3 sequence (whole entry): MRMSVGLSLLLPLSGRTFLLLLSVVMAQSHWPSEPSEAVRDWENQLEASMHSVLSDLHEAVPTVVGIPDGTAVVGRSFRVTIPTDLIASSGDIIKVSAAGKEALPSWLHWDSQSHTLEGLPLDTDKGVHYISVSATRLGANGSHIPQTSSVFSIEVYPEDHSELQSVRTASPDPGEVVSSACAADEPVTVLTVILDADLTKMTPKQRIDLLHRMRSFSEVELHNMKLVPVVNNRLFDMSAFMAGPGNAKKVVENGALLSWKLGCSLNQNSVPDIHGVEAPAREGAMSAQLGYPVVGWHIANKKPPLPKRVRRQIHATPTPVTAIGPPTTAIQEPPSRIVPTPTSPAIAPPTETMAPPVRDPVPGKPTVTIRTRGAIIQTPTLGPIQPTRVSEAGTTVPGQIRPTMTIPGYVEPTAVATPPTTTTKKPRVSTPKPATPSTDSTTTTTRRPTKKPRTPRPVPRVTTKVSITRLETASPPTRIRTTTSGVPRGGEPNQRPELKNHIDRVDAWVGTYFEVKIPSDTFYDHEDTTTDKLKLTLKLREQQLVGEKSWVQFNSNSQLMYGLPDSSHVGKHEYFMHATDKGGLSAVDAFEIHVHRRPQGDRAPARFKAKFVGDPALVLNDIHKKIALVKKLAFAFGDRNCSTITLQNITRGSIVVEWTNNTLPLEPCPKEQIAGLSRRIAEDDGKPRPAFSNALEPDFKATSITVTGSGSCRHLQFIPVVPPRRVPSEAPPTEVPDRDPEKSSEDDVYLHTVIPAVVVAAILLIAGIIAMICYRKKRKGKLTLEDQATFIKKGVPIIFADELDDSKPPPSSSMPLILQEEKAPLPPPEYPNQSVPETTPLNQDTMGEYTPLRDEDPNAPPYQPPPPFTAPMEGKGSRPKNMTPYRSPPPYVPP

[4] = target: T3, Dystroglycan 1 (Homo sapiens); assay: Increase of functional O-mannosylation of alpha-dystroglycan in human myoblasts after 48 hrs by immunofluorescence assay
[5] = target: T3, Dystroglycan 1 (Homo sapiens); assay: Increase of functional O-mannosylation of alpha-dystroglycan in human myotubes after 48 hrs by immunofluorescence assay
[6] = target: T2, Dystroglycan 1 (Mus musculus); assay: Increase of functional O-mannosylation of alpha-dystroglycan in mouse C2C12 cells expressing myogenin after 48 hrs by immunofluorescence assay; format: cell-based
[7] = target: T2, Dystroglycan 1 (Mus musculus); assay: Increase of functional O-mannosylation of alpha-dystroglycan in mouse C2C12 cells after 48 hrs by immunofluorescence assay; format: cell-based
[8] = target: T1, Dystroglycan (Cricetulus griseus); assay: Increase of functional O-mannosylation of alpha-dystroglycan in Chinese hamster Lec15.2 cells after 24 hrs by fluorescence assay
[9] = target: T1, Dystroglycan (Cricetulus griseus); assay: Increase of functional O-mannosylation of alpha-dystroglycan in Chinese hamster pgsl-208 cells after 24 hrs by fluorescence assay
[10] = target: T1, Dystroglycan (Cricetulus griseus); assay: Increase of functional O-mannosylation of alpha-dystroglycan in Chinese hamster B421 cells after 24 hrs by fluorescence assay relative to control; format: cell-based
[11] = target: T3, Dystroglycan 1 (Homo sapiens); assay: Increase of functional O-mannosylation of alpha-dystroglycan in FKRP-deficient human myotubes after 24 hrs by fluorescence assay

EC1.5 [1]: 1.2 µM
fold change (FC) [2]: 8
Activity [3]: Active
Activity [4]: inactive
Activity [5]: inactive
Activity [6]: Active
Activity [7]: Active
Activity [8]: inactive
Activity [9]: inactive
fold change (FC) [10]: < 6
Activity [11]: Active
SMILES: CCC(c1nnnn1Cc1cccs1)N1CCN(c2nc3cc(N)cc(F)c3s2)CC1 (stereo unspecified)
